# Measurements reported in patent publication US20050148254A1, “Light-activated biocidal polyelectrolytes” (priority 2003, published 2005).
# System: Bacillus anthracis spores
# Format: cell-based, Bacillus anthracis (Sterne)
Compound,% killing [%],Spore colonies,reduction in bacterial survival,reduction of bacterial survival,inhibition of B. anthracis survival,reduction in survival for B. anthracis
"CCCCCCCCCCCC[N+](C)(C)C.[Br-] [DTAB, dodecyltrimethylammonium bromide]",40,84 ± 4,approximately 40%,approximately 40%,,
"CN(C)c1ccc2nc3ccc(=[N+](C)C)cc-3sc2c1 [MB, methylene blue]",,,,,no inhibition,75%
"O=C1OC2(c3cc(I)c(O)c(I)c3Oc3c2cc(I)c(O)c3I)c2c(Cl)c(Cl)c(Cl)c(Cl)c21 [RBL, Rose Bengal lactone]",,,,,,approximately 40%
